Experimental data taken from patent US6346273B1, “Process for solubilizing pharmaceutically active ingredients in water and in aqueous vehicles” (Farmigea S.p.A., priority 1997, dated 2002).
One block for each compound: values may come before it.

What was measured:
[1] = Amounts of drugs solubilized at 20° C. in water, with PVP, with PEG-GTR and with the method of the invention; assay type: physicochemical
Source text: In this table, the solubility of each drug in water is compared with the solubility obtainable with the complexation method (with PVP) and with the solubility obtainable with the micellar solubilization method with surfactants (with PEG-GTR). In all cases it is evident that the combined method according to the invention affords solubility increases that are largely greater than the sum of the increases obtainable with each one of the prior art methods.

[2] = co-precipitated with PVP having M.W.=50,000; cited from earlier work
[3] = PVP (M.W. = 10,000) 18.0 % w/w in water

Compound: CC(=O)OCC(=O)[C@@]12OC(C)(C)O[C@@H]1C[C@H]1[C@@H]3CC(C=O)=C4C=C(OCCCl)CC[C@]4(C)[C@@]3(F)[C@@H](O)C[C@@]12C [Formocortal]
Amt. of drug solubilized at 20° C. (% w/w) ([1]; PEG-GTR 5.0 % w/w in water): 0.0252 % w/w | Amt. of drug solubilized at 20° C. (% w/w) [1, 3]: 0.0022 % w/w | Amt. of drug solubilized at 20° C. (% w/w) ([1]; PVP (M.W. = 10,000) + PEG-GTR (18.0 + 5.0 % w/w), method of the invention): 0.10 % w/w | Amt. of drug solubilized at 20° C. (% w/w) ([1]; water, solubilizing agent none): 0.008 % w/w

Compound: C=C[C@@]1(C)CC(=O)[C@]2(O)[C@@]3(C)[C@@H](O)CCC(C)(C)[C@@H]3[C@H](O)[C@H](OC(C)=O)[C@@]2(C)O1 [Forskolin]
Amt. of drug solubilized at 20° C. (% w/w) ([1]; PEG-GTR 10.0 % w/w in water): 0.05 % w/w | Amt. of drug solubilized at 20° C. (% w/w) ([1]; PVP (M.W. = 10,000) 30.0 % w/w in water): 0.03 % w/w | Amt. of drug solubilized at 20° C. (% w/w) ([1]; PVP (M.W. = 10,000) + PEG-GTR (30.0 + 10.0 % w/w), method of the invention): 0.20 % w/w | Amt. of drug solubilized at 20° C. (% w/w) ([1]; water, solubilizing agent none): 0.0029 % w/w

Compound: C[C@@H]1O[C@@H](OC[C@H]2O[C@@H](Oc3c(-c4ccc(O)c(O)c4)oc4cc(O)cc(O)c4c3=O)[C@H](O)[C@@H](O)[C@@H]2O)[C@H](O)[C@H](O)[C@H]1O [Rutin]
Amt. of drug solubilized at 20° C. (% w/w) ([1]; PEG-GTR 10.0 % w/w in water): 0.074 % w/w | Amt. of drug solubilized at 20° C. (% w/w) ([1]; PVP (M.W. = 2000-3000) 30.0 % w/w in water): 0.37 % w/w | Amt. of drug solubilized at 20° C. (% w/w) ([1]; PVP (M.W. = 2000-3000) + PEG-GTR (30.0 + 10.0 % w/w), method of the invention): 1.0 % w/w | Amt. of drug solubilized at 20° C. (% w/w) ([1]; water, solubilizing agent none): 0.0125 % w/w

Compound: O=C1NC(=O)C(c2ccccc2)(c2ccccc2)N1 [phenytoin]
solutions stability [2]: maximum of two years

Second part, the compound after the results:

Amt. of drug solubilized at 20° C. (% w/w) ([1]; PEG-GTR 2.5 % w/w in water): 0.13 % w/w | Amt. of drug solubilized at 20° C. (% w/w) ([1]; PVP (M.W. = 10,000) 20.0 % w/w in water): 0.081 % w/w | Amt. of drug solubilized at 20° C. (% w/w) ([1]; PVP (M.W. = 10,000) + PEG-GTR (20.0 + 2.5 % w/w), method of the invention): 0.50 % w/w | Amt. of drug solubilized at 20° C. (% w/w) ([1]; water, solubilizing agent none): 0.0017 % w/w
Compound: CN1C(C(=O)Nc2ccccn2)=C(O)c2ccccc2S1(=O)=O [Piroxicam]

Amt. of drug solubilized at 20° C. (% w/w) ([1]; PEG-GTR 1.0 % w/w in water): 0.03 % w/w | Amt. of drug solubilized at 20° C. (% w/w) ([1]; PVP (M.W. = 44,000-54,000) 15.0 % w/w in water): 0.24 % w/w | Amt. of drug solubilized at 20° C. (% w/w) ([1]; PVP (M.W. = 44,000-54,000) + PEG-GTR (15.0 + 1.0 % w/w), method of the invention): 0.30 % w/w | Amt. of drug solubilized at 20° C. (% w/w) ([1]; water, solubilizing agent none): 0.029 % w/w
Compound: CN1CCN(c2c(F)cc3c(=O)c(C(=O)O)cn4c3c2SCC4)CC1 [Rufloxacin]

Amt. of drug solubilized at 20° C. (% w/w) ([1]; PEG-GTR 6.0 % w/w in water): 0.60 % w/w | Amt. of drug solubilized at 20° C. (% w/w) ([1]; PEG-GTR 8.0 % w/w in water): 0.80 % w/w | Amt. of drug solubilized at 20° C. (% w/w) ([1]; PEG-GTR 10.0 % w/w in water): 1.20 % w/w | Amt. of drug solubilized at 20° C. (% w/w) ([1]; PVP (M.W. 10,000) + PEG-GTR (18.0 + 8.0 % w/w), method of the invention): 2.0 % w/w | Amt. of drug solubilized at 20° C. (% w/w) [1, 3]: 0.05 % w/w | Amt. of drug solubilized at 20° C. (% w/w) ([1]; PVP (M.W. = 10,000) + PEG-GTR (18.0 + 6.0 % w/w), method of the invention): 1.50 % w/w | Amt. of drug solubilized at 20° C. (% w/w) ([1]; PVP (M.W. = 10,000) + PEG-GTR (18.0 + 10.0 % w/w), method of the invention): 3.0 % w/w | solubility in water ([1]; at 20° C.): 0.75 mg/100 g of water | solubility when treated with complexation with PVP ([1]; complexation with PVP): 0.05 % (w/w) | solubility by means of surface-active agents ([1]; optimized choice of surfactant and amounts): ~1.2 % (w/w) | original solubility ([1]; water, no solubilization technique): 0.00075 % (w/w) | Amt. of drug solubilized at 20° C. (% w/w) ([1]; water, solubilizing agent none): 0.00075 % w/w
Compound: COc1ccc2c(C(=S)N(C)CC(=O)O)cccc2c1C(F)(F)F [Tolrestat]
